Test results as given in patent US10857105B2, “Compounds and compositions for intracellular delivery of therapeutic agents” (ModernaTX, Inc., priority 2017, dated 2020).
“Also recorded” adds a separate entry of the source.

What was measured:
[1] = tested on: luciferase (Luc) mRNA; experiment: Luciferase expression after subcutaneous administration to mice; type: in vivo, CD-1 mice; conditions: 6 hr. time point, relative to MC3; for Novel lipid/MC3 expression ratio, s.c. Luc (mpk) 0.5: 0.5 mpk
Excerpt: FIGS. 19A and 19B show the results of luciferase expression measured upon subcutaneous administration of various nanoparticle compositions to CD-1 mice at 0.05 mpk. FIG. 19A is a bar graph showing total flux at 6 hr after administration. The numbers above each bar indicate the expression ratio relative to MC3. […] Numbers 1-12 in the Figures refer to compositions containing the following: 1: PBS, 2: MC3, 3: Compound 25; 4: Compound 30; 5: Compound 20; 6: Compound 110; 7: Compound 112; 8: Compound 113; 9: Compound 72; 10: Compound 75; 11: Compound 122, 12: Compound 24.
FIGS. 20A-20C is a series of graphs summarizing luciferase expression levels in (FIG. 20A) spleen (FIG. 20B) liver, and (FIG. 20C) at the injection site, ex vivo, 24 h after administration of nanoparticle compositions containing compounds of the disclosure to CD-1 mice. Total light flux values were acquired via body luminescent imaging (BLI). PBS (phosphate buffered saline) was used as a control. Numbers 1-12 in the Figures refer to compositions containing the following: 1: PBS, 2: MC3, 3: Compound 25; 4: Compound 30; 5: Compound 20; 6: Compound 110; 7: Compound 112; 8: Compound 113; 9: Compound 72; 10: Compound 75; 11: Compound 122, 12: Compound 24.
FIGS. 22A-22C are a series of graphs summarizing luciferase expression levels at (FIG. 22A) 3 h, (FIG. 22B) 6 h, and (FIG. 22C) 24 h after subcutaneous administration of nanoparticle compositions containing compounds of the disclosure to mice. Total light flux values were acquired via body luminescent imaging (BLI). PBS (phosphate buffered saline) was used as a control. Numbers 1-12 in the Figures refer to compositions containing the following: 1: PBS, 2: MC3, 3: Compound 168; 4: Compound 23; 5: Compound 19; 6: Compound 108; 7: Compound 109; 8: Compound 111; 9: Compound 60; 10: Compound 61; 11: Compound 69, 12: Compound 128.

[2] = tested on: mRNA encoding anti-HA antibody; experiment: Anti-HA (anti-hemagglutinin) antibody expression after intravenous infusion to cynomolgus monkeys; type: in vivo; conditions: iv infusion 60 minutes
Method: FIGS. 11A and 11B show the results of anti-HA (anti-hemagglutinin) antibody expression measured after intravenous administration of various nanoparticle compositions including MC3 and Compound 18 at a 0.1 mpk (FIG. 11A) or 0.3 mpk (FIG. 11B) dose with 60 minutes infusion to naive cynomolgus monkeys.
FIGS. 31A-31C is a series of graphs illustrating the expression profile for lipid nanoparticles of the disclosure in a cynomolgus money study. FIG. 31A illustrates hEPO serum concentrations after delivery of 0.01 mg/kg hEPO mRNA in MC3 or Compound 18. The liquid nanoparticles were administered intravenously, via a 60 min. infusion (n=3). p<0.05 for Compound 18 AUC relative to MC3.
FIG. 36 is a graph illustrating Human IgG expression in a cynomolgus monkey administered with 0.1 mg/kg human IgG mRNA in a composition comprising MC3 or compound 18, intravenously via a 60 min. infusion (n=3).
Results of hEPO expression studies were validated using a standard MC3 formulation and a nanoparticle composition containing Compound 18 including an mRNA encoding an anti-hemagglutinin (anti-HA) antibody. Cynomolgus monkeys were administered a single dose of 0.1 mpk or 0.3 mpk of nanoparticle composition containing Compound 18 (see Table 33; prepared according to Example 2) including an mRNA encoding anti-HA antibody via intravenous infusion for 60 minutes.

[3] = tested on: CD-1 mice; experiment: Luciferase expression after intravenous delivery of luciferase mRNA LNPs (bioluminescent imaging); type: in vivo; conditions: intravenous 0.5 mg/kg mRNA dose
Method: Whole body and ex vivo organ bioluminescent imaging of mice: CD-1 mice were injected 15 minutes prior to the imaging timepoint intraperitoneally (IP) with 200 μL Xenolight D-luciferin K+ salt, diluted in PBS just prior to use to a concentration of 15 mg/mL. Ex vivo imaging of organs was completed, within 25 minutes of luciferin administration. All images were quantified by region of interest for total flux.
[…] […] (See Semple, S.C. et al., Nature Biotech. 2010. 28, 172-176, Jayaraman, M., et al. Angew. Chem. Int. Ed. 2012, 51, 8529-8533, the entire contents of each of which are incorporated by reference herein in their entireties). To evaluate the efficiency of the new amino lipids, LNPs using the novel compounds were tested in vivo in mice using luciferase mRNA as a reporter. An MC3 LNP was included as a control in each experiment, enabling the comparison of LNPs from experiment to experiment. Measured luciferase activity also enabled the determination of protein bio-distribution.

[4] = tested on: modified luciferase (Luc) mRNA and H10 mRNA; experiment: Expression after intramuscular administration of formulations including Luc mRNA and H10 mRNA; type: in vivo; conditions: 6 hours after intramuscular administration
Method: Sample formulations including both modified luciferase (Luc) mRNA and H10 mRNA were prepared and administered intramuscularly and the resulting expression and immunogenicity were evaluated simultaneously. Formulations including compounds according to Formula (I), (IA), (IB), (II), (IIa), (IIb), (IIc), (IId), (IIe), (IIf), (IIg), or (III) were prepared and administered at doses of 0.001 and 0.01 mpk (e.g., doses of 0.0005 mpk of a formulation including Luc mRNA and a formulation including H10 mRNA or doses of 0.005 mpk of a formulation including Luc mRNA and a formulation including H10 mRNA).
The fluxes measured upon intravenous and intramuscular administration are compared in Table 6. Fluxes are presented as fold increase over that measured for MC3 formulations.

CCCCCCCCCOC(=O)CCCCCCCN(CCO)CCCCCCCC(=O)OC(CCCCCCCC)CCCCCCCC [Compound 18, Heptadecan-9-yl 8-((2-hydroxyethyl)(8-(nonyloxy)-8-oxooctyl)amino)octanoate]
Novel lipid/MC3 expression ratio, s.c. Luc (mpk) 0.5 [1]: 1.88
AUC (anti-HA antibody expression) ([2]; Dose 0.1 mpk): 354.3 µg·h/mL
AUC (anti-HA antibody expression) ([2]; Dose 0.3 mpk): 1055 µg·h/mL

CCCCCCCCCCCOC(=O)CCCCCN(CCO)CCCCCCCC(=O)OC(CCCCCCCC)CCCCCCCC [Compound 25, Heptadecan-9-yl 8-((2-hydroxyethyl)(6-oxo-6-(undecyloxy)hexyl)amino)octanoate]
luciferase activity/expression compared to MC3 LNP control (words) [3]: higher expression compared to MC3

CCCCCCCCCOC(=O)CCCN(CCO)CCCCCCCC(=O)OC(CCCCCCCC)CCCCCCCC [Compound 26, Heptadecan-9-yl 8-((2-hydroxyethyl)(4-(nonyloxy)-4-oxobutyl)amino) octanoate]
luciferase activity/expression compared to MC3 LNP control (words) ([3]; 0.5 mg/kg): higher expression compared to MC3; also recorded: highest luciferase activity of the series

CCCCCC=CCC=CCCCCCCCCC(CCCCCCCCC=CCC=CCCCCC)OC(=O)CCCN(C)C (stereo not shown) [MC3, heptatriaconta-6,9,28,31-tetraen-19-yl 4-(dimethylamino)butanoate, reference compound]
Total flux, 0.001 mpk Dose [4]: 2.76E+06 p/s
Total flux, 0.01 mpk Dose [4]: 3.68E+07 p/s
AUC (anti-HA antibody expression) ([2]; Dose 0.1 mpk): 77.05 µg·h/mL
AUC (anti-HA antibody expression) ([2]; Dose 0.3 mpk): 235.7 µg·h/mL

Nonyl 8-((6-(heptadecan-9-yloxy)-6-oxohexyl)(2-hydroxyethyl)amino) octanoate [Compound 27]
Novel lipid/MC3 expression ratio, s.c. Luc (mpk) 0.05 ([1]; 0.05 mpk): 14.45
Novel lipid/MC3 expression ratio, s.c. Luc (mpk) 0.5 [1]: 4.87
Total flux, 0.001 mpk Dose [4]: 2.55E+06 p/s
Total flux, 0.01 mpk Dose [4]: 3.17E+07 p/s
